Our source for the IC50 values is patent publication US20260347364A1, “PYRAZOLO[4,3-F]QUINAZOLINE DERIVATIVES AS MODULATORS OF G12D MUTANT KRAS USEFUL FOR THE TREATMENT OF CANCER” (JAZZ PHARMACEUTICALS IRELAND LTD., priority 2023, published 2026).

A value given as a limit tells only on which side of the number the result lay.

The target in one assay is T1, KRAS WT (Homo sapiens, UniProt P01116).
T1 construct: aa1-188 KRAS WT
As to the kind of experiment: HTRF nucleotide exchange assay, KRAS WT. It is filed as biochemical. As to conditions: HTRF nucleotide exchange assay (NEA), class symbols. A general note: In TR-FRET formats the signal depends on donor and acceptor labels being close together.

Another assay deals with T2, KRAS G12D (Homo sapiens, UniProt P01116, G12D).
T2 construct: aa1-188 KRAS WT, HRAS WT, NRAS WT, or KRAS containing the G12D
As to the kind of experiment: HTRF nucleotide exchange assay, KRAS G12D. It is filed as biochemical. As to conditions: HTRF nucleotide exchange assay (NEA), class symbols.

T1 sequence (P01116 1-188 isoform P01116-2): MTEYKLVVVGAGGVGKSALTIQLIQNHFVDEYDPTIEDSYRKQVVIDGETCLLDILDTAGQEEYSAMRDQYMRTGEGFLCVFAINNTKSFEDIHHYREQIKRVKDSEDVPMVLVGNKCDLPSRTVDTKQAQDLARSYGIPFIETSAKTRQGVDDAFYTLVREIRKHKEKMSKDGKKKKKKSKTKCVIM
T2 sequence (P01116 1-188 isoform P01116-2 G12D): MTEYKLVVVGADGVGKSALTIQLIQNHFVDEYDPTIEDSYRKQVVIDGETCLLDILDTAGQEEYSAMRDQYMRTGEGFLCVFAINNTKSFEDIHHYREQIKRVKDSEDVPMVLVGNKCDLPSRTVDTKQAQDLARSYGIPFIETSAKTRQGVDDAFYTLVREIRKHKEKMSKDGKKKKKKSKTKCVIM

With `CCc1c(F)ccc2cc(O)cc(-c3c(F)c4nc(OCC5(CN(C)CC)CC5)nc(N5CCOCC(C)(O)C5)c4c4cn(C)nc34)c12` (stereo not drawn) [Example 212, 4-[4-(8-ethyl-7-fluoro-3-hydroxy-1-naphthyl)-7-[[1-[[ethyl(methyl)amino]methyl]cyclopropyl]methoxy]-5-fluoro-2-methyl-pyrazolo[4,3-f]quinazolin-9-yl]-6-methyl-1,4-oxazepan-6-ol], the IC50 at KRAS WT and against KRAS G12D was not above 0.01 µM each time.
Take `CCc1c(F)ccc2cc(O)cc(-c3c(F)c4nc(OCC5(CN6CCC(O)CC6)CC5)nc(N5CCOCC(C)(O)C5)c4c4cn(C)nc34)c12` (stereo not drawn) [Example 213, 4-[4-(8-ethyl-7-fluoro-3-hydroxy-1-naphthyl)-5-fluoro-7-[[1-[(4-hydroxy-1-piperidyl)methyl]cyclopropyl]methoxy]-2-methyl-pyrazolo[4,3-f]quinazolin-9-yl]-6-methyl-1,4-oxazepan-6-ol]: the IC50 on KRAS WT and at KRAS G12D was not above 0.01 µM throughout.
`CCc1c(F)ccc2cc(O)cc(-c3c(F)c4nc(OCC5(CN6CCC6)CC5)nc(N5CCOCC(C)(O)C5)c4c4cn(C)nc34)c12` (stereo not drawn) [Example 214, 4-[7-[[1-(azetidin-1-ylmethyl)cyclopropyl]methoxy]-4-(8-ethyl-7-fluoro-3-hydroxy-1-naphthyl)-5-fluoro-2-methyl-pyrazolo[4,3-f]quinazolin-9-yl]-6-methyl-1,4-oxazepan-6-ol]: the half-maximal inhibitory concentration (IC50) against KRAS WT and against KRAS G12D was not above 0.01 µM throughout.
Take `CCc1c(F)ccc2cc(O)cc(-c3c(C)c4nc(OCC5(CF)COC5)nc(N5CCCn6nc(C(=O)N(C)C)cc6C5)c4c4cn(C)nc34)c12` [Example 215]: the IC50 (usually the midpoint of a concentration-inhibition curve) on KRAS WT is 0.1 to 10 µM; at KRAS G12D, 0.01 to 0.1 µM.
Turning to `CCc1c(F)ccc2cc(O)cc(-c3c(C)c4nc(OC[C@@]56CCCN5C[C@H](F)C6)nc(N5CC6CCC5CN6)c4c4cn(C)nc34)c12` (stereo partly drawn) [Example 216, 4-[9-(2,5-diazabicyclo[2.2.2]octan-2-yl)-2,5-dimethyl-7-[[(2R,8S)-2-fluoro-1,2,3,5,6,7-hexahydropyrrolizin-8-yl]methoxy]pyrazolo[4,3-f]quinazolin-4-yl]-5-ethyl-6-fluoro-naphthalen-2-ol], the IC50 against KRAS WT and at KRAS G12D was not above 0.01 µM throughout.
For the compound `CCc1c(F)ccc2cc(O)cc(-c3c(F)c4nc(OCC5(CN6CC7CCC(C6)O7)CC5)nc(N5CCOCC(C)(O)C5)c4c4cn(C)nc34)c12` (stereo not drawn) [Example 217, 4-[4-(8-ethyl-7-fluoro-3-hydroxy-1-naphthyl)-5-fluoro-2-methyl-7-[[1-(8-oxa-3-azabicyclo[3.2.1]octan-3-ylmethyl)cyclopropyl]methoxy]pyrazolo[4,3-f]quinazolin-9-yl]-6-methyl-1,4-oxazepan-6-ol], the IC50 at KRAS WT and on KRAS G12D was not above 0.01 µM throughout.
With `CCc1c(F)ccc2cc(O)cc(-c3c(F)c4nc(OCC5(CN6CCC(C(F)(F)F)CC6)CC5)nc(N5CCOCC(C)(O)C5)c4c4cn(C)nc34)c12` (stereo not drawn) [Example 218, 4-[4-(8-ethyl-7-fluoro-3-hydroxy-1-naphthyl)-5-fluoro-2-methyl-7-[[1-[[4-(trifluoromethyl)-1-piperidyl]methyl]cyclopropyl]methoxy]pyrazolo[4,3-f]quinazolin-9-yl]-6-methyl-1,4-oxazepan-6-ol], the half-inhibitory concentration (IC50) against KRAS WT and at KRAS G12D was not above 0.01 µM each time.
`CCc1c(F)ccc2cc(O)cc(-c3c(F)c4nc(OCC5(CN6CCOC(C(F)(F)F)C6)CC5)nc(N5CCOCC(C)(O)C5)c4c4cn(C)nc34)c12` (stereo not drawn) [Example 219, 4-[4-(8-ethyl-7-fluoro-3-hydroxy-1-naphthyl)-5-fluoro-2-methyl-7-[[1-[[2-(trifluoromethyl)morpholin-4-yl]methyl]cyclopropyl]methoxy]pyrazolo[4,3-f]quinazolin-9-yl]-6-methyl-1,4-oxazepan-6-ol]: the IC50 against KRAS WT and on KRAS G12D was 0.1 to 10 µM in each case.
In the case of `CCc1c(F)ccc2cc(O)cc(-c3c(F)c4nc(OCC5(CN6CC7CC7C6)CC5)nc(N5CCOCC(C)(O)C5)c4c4cn(C)nc34)c12` (stereo not drawn) [Example 221, 4-[7-[[1-(3-azabicyclo[3.1.0]hexan-3-ylmethyl)cyclopropyl]methoxy]-4-(8-ethyl-7-fluoro-3-hydroxy-1-naphthyl)-5-fluoro-2-methyl-pyrazolo[4,3-f]quinazolin-9-yl]-6-methyl-1,4-oxazepan-6-ol], the IC50 on KRAS WT and against KRAS G12D was not above 0.01 µM each time.
Consider `CCc1c(F)ccc2cc(O)cc(-c3c(F)c4nc(OCC5(CN(C)C)CCC5)nc(N5CCOCC(C)(O)C5)c4c4cn(C)nc34)c12` (stereo not drawn) [Example 222, 4-[7-[[1-[(dimethylamino)methyl]cyclobutyl]methoxy]-4-(8-ethyl-7-fluoro-3-hydroxy-1-naphthyl)-5-fluoro-2-methyl-pyrazolo[4,3-f]quinazolin-9-yl]-6-methyl-1,4-oxazepan-6-ol], for which the half-inhibitory concentration (IC50) against KRAS WT and against KRAS G12D was not above 0.01 µM each time.
Regarding `CCc1c(F)ccc2cc(O)cc(-c3c(F)c4nc(OC[C@@]56CCCN5C[C@H](F)C6)nc(N5CCOCC(O)C5)c4c4cn(C)nc34)c12` (stereo partly drawn) [Example 223, 4-[4-(8-ethyl-7-fluoro-3-hydroxy-1-naphthyl)-5-fluoro-7-[[(2R,8S)-2-fluoro-1,2,3,5,6,7-hexahydropyrrolizin-8-yl]methoxy]-2-methyl-pyrazolo[4,3-f]quinazolin-9-yl]-1,4-oxazepan-6-ol], the IC50 against KRAS WT and against KRAS G12D was not above 0.01 µM throughout.
For `CCc1c(F)ccc2cc(O)cc(-c3c(F)c4nc(OCCC5CN(C)CCO5)nc(N5CCOCC(C)(O)C5)c4c4cn(C)nc34)c12` (stereo not drawn) [Example 224, 4-[4-(8-ethyl-7-fluoro-3-hydroxy-1-naphthyl)-5-fluoro-2-methyl-7-[2-(4-methylmorpholin-2-yl)ethoxy]pyrazolo[4,3-f]quinazolin-9-yl]-6-methyl-1,4-oxazepan-6-ol], the IC50 is 0.01 to 0.1 µM against KRAS WT and not above 0.01 µM against KRAS G12D.
On the same counts, the results for `CCc1c(F)ccc2cc(O)cc(-c3c(F)c4nc(OCC5(CN6CCC(CC#N)CC6)CC5)nc(N5CCOCC(C)(O)C5)c4c4cn(C)nc34)c12` (stereo not drawn) [Example 225, 2-[1-[[1-[[4-(8-ethyl-7-fluoro-3-hydroxy-1-naphthyl)-5-fluoro-9-(6-hydroxy-6-methyl-1,4-oxazepan-4-yl)-2-methyl-pyrazolo[4,3-f]quinazolin-7-yl]oxymethyl]cyclopropyl]methyl]-4-piperidyl]acetonitrile] are not above 0.01 µM and not above 0.01 µM.
Take `CCc1c(F)ccc2cc(O)cc(-c3c(F)c4nc(OCC5(CN6CCC7(CCOCC7)C6)CC5)nc(N5CCOCC(C)(O)C5)c4c4cn(C)nc34)c12` (stereo not drawn) [Example 228, 4-[4-(8-ethyl-7-fluoro-3-hydroxy-1-naphthyl)-5-fluoro-2-methyl-7-[[1-(8-oxa-2-azaspiro[4.5]decan-2-ylmethyl)cyclopropyl]methoxy]pyrazolo[4,3-f]quinazolin-9-yl]-6-methyl-1,4-oxazepan-6-ol]: the half-inhibitory concentration (IC50) at KRAS WT and on KRAS G12D was not above 0.01 µM in each case.
Turning to `CCc1c(F)ccc2cc(O)cc(-c3c(F)c4nc(OCC5(CN6CCC(F)(F)CC6)CC5)nc(N5CCOCC(C)(O)C5)c4c4cn(C)nc34)c12` (stereo not drawn) [Example 229, 4-[7-[[1-[(4,4-difluoro-1-piperidyl)methyl]cyclopropyl]methoxy]-4-(8-ethyl-7-fluoro-3-hydroxy-1-naphthyl)-5-fluoro-2-methyl-pyrazolo[4,3-f]quinazolin-9-yl]-6-methyl-1,4-oxazepan-6-ol], the half-maximal inhibitory concentration (IC50) on KRAS WT and at KRAS G12D was not above 0.01 µM each time.
Regarding `CCc1c(F)ccc2cc(O)cc(-c3c(F)c4nc(OCC5(CN(C)C)CC5)nc(N5CCC[C@@](C)(O)C5)c4c4cn(C)nc34)c12` [Example 230, (3R)-1-[7-[[1-[(dimethylamino)methyl]cyclopropyl]methoxy]-4-(8-ethyl-7-fluoro-3-hydroxy-1-naphthyl)-5-fluoro-2-methyl-pyrazolo[4,3-f]quinazolin-9-yl]-3-methyl-piperidin-3-ol], the IC50 against KRAS WT and against KRAS G12D was not above 0.01 µM throughout.
Turning to `CCc1c(F)ccc2cc(O)cc(-c3c(F)c4nc(OCC5(CN6CC[C@H](F)C6)CC5)nc(N5CCOCC(C)(O)C5)c4c4cn(C)nc34)c12` (stereo partly drawn) [Example 231, 4-[4-(8-ethyl-7-fluoro-3-hydroxy-1-naphthyl)-5-fluoro-2-methyl-7-[[1-[[(3S)-3-fluoropyrrolidin-1-yl]methyl]cyclopropyl]methoxy]pyrazolo[4,3-f]quinazolin-9-yl]-6-methyl-1,4-oxazepan-6-ol], the concentration for half-maximal inhibition (IC50) against KRAS WT and on KRAS G12D was not above 0.01 µM in each case.
On to `CCc1c(F)ccc2cc(O)cc(-c3c(F)c4nc(OCC5COCCN5C)nc(N5CCOCC(C)(O)C5)c4c4cn(C)nc34)c12` (stereo not drawn) [Example 232, 4-[4-(8-ethyl-7-fluoro-3-hydroxy-1-naphthyl)-5-fluoro-2-methyl-7-[(4-methylmorpholin-3-yl)methoxy]pyrazolo[4,3-f]quinazolin-9-yl]-6-methyl-1,4-oxazepan-6-ol], for which the 50% inhibitory concentration (IC50) against KRAS WT and at KRAS G12D was 0.01 to 0.1 µM in each case.
For the compound `CCc1c(F)ccc2cc(O)cc(-c3c(F)c4nc(OCC5COCCN5)nc(N5CCOCC(C)(O)C5)c4c4cn(C)nc34)c12` (stereo not drawn) [Example 233, 4-[4-(8-ethyl-7-fluoro-3-hydroxy-1-naphthyl)-5-fluoro-2-methyl-7-(morpholin-3-ylmethoxy)pyrazolo[4,3-f]quinazolin-9-yl]-6-methyl-1,4-oxazepan-6-ol], the half-maximal inhibitory concentration (IC50) against KRAS WT is 0.01 to 0.1 µM; on KRAS G12D, not above 0.01 µM.
Consider `CCc1c(F)ccc2cc(O)cc(-c3c(C)c4nc(OC[C@]5(C)CCCN5C)nc(N5CCC[C@@](C)(O)C5)c4c4cn(C)nc34)c12` [Example 234], for which the IC50 on KRAS WT was 0.01 to 0.1 µM; against KRAS G12D it was not above 0.01 µM.
Consider `CCc1c(F)ccc2cc(O)cc(-c3c(F)c4nc(OCC56CCCN5CC(=C(F)F)C6)nc(N5CCOCC(C)(O)C5)c4c4cn(C)nc34)c12` (stereo not drawn) [Example 235, 4-[7-[[6-(difluoromethylene)-2,3,5,7-tetrahydro-1H-pyrrolizin-8-yl]methoxy]-4-(8-ethyl-7-fluoro-3-hydroxy-1-naphthyl)-5-fluoro-2-methyl-pyrazolo[4,3-f]quinazolin-9-yl]-6-methyl-1,4-oxazepan-6-ol], for which the 50% inhibitory concentration (IC50) against KRAS WT and against KRAS G12D was not above 0.01 µM each time.
